The source made the active and inactive calls. No cut-off for these calls is given here.
Experiments:
[1] = biological target: T1, Dermcidin (Homo sapiens) (UniProt P81605); experiment: Covalent binding affinity to DCD-1L (unknown origin) at 50 uM incubated for 24 hrs by denatured SDS-PAGE gel electrophoresis
T1 sequence (whole entry): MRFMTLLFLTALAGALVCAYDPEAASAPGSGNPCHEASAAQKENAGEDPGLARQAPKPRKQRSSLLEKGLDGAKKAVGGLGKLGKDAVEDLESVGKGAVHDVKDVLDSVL

[2] = tested on: MOLT-4; experiment: Growth inhibition of human MOLT4 cells assessed as cell growth incubated for 48 hrs by sulforhodamine B assay; type: functional; design: concentration or dose not given beside the values
[3] = tested on: RPMI-8226; experiment: Growth inhibition of human RPMI8226 cells assessed as cell growth incubated for 48 hrs by sulforhodamine B assay; type: functional; design: concentration or dose not given beside the values
[4] = tested on: K562; experiment: Growth inhibition of human K562 cells assessed as cell growth incubated for 48 hrs by sulforhodamine B assay; type: functional; design: concentration or dose not given beside the values
[5] = tested on: CCRF-CEM; experiment: Growth inhibition of human CCRF-CEM cells assessed as cell growth incubated for 48 hrs by sulforhodamine B assay; type: functional; design: concentration or dose not given beside the values
[6] = tested on: HL-60(TB); experiment: Growth inhibition of human HL-60(TB) cells assessed as cell growth incubated for 48 hrs by sulforhodamine B assay; type: functional; design: concentration or dose not given beside the values
[7] = tested on: SR; experiment: Growth inhibition of human SR cells assessed as cell growth incubated for 48 hrs by sulforhodamine B assay; type: functional; design: concentration or dose not given beside the values
[8] = tested on: A549; experiment: Growth inhibition of human A549/ATCC cells assessed as cell growth incubated for 48 hrs by sulforhodamine B assay; type: functional; design: concentration or dose not given beside the values
[9] = tested on: HOP-62; experiment: Growth inhibition of human HOP62 cells assessed as cell growth incubated for 48 hrs by sulforhodamine B assay; type: functional; design: concentration or dose not given beside the values
[10] = tested on: HOP-92; experiment: Growth inhibition of human HOP92 cells assessed as cell growth incubated for 48 hrs by sulforhodamine B assay; type: functional; design: concentration or dose not given beside the values
[11] = tested on: NCI-H226; experiment: Growth inhibition of human NCI-H226 cells assessed as cell growth incubated for 48 hrs by sulforhodamine B assay; type: functional; design: concentration or dose not given beside the values
[12] = tested on: NCI-H23; experiment: Growth inhibition of human NCI-H23 cells assessed as cell growth incubated for 48 hrs by sulforhodamine B assay; type: functional; design: concentration or dose not given beside the values
[13] = tested on: NCI-H322M; experiment: Growth inhibition of human NCI-H322M cells assessed as cell growth incubated for 48 hrs by sulforhodamine B assay; type: functional; design: scale not given: the % may be the effect or the level left
[14] = tested on: NCI-H460; experiment: Growth inhibition of human NCI-H460 cells assessed as cell growth incubated for 48 hrs by sulforhodamine B assay; type: functional; design: concentration or dose not given beside the values
[15] = tested on: NCI-H522; experiment: Growth inhibition of human NCI-H522 cells assessed as cell growth incubated for 48 hrs by sulforhodamine B assay; type: functional; design: concentration or dose not given beside the values
[16] = tested on: COLO 205; experiment: Growth inhibition of human COLO205 cells assessed as cell growth incubated for 48 hrs by sulforhodamine B assay; type: functional; design: concentration or dose not given beside the values
[17] = tested on: HCC 2998; experiment: Growth inhibition of human HCC2998 cells assessed as cell growth incubated for 48 hrs by sulforhodamine B assay; type: functional; design: concentration or dose not given beside the values
[18] = tested on: HCT-116; experiment: Growth inhibition of human HCT116 cells assessed as cell growth incubated for 48 hrs by sulforhodamine B assay; type: functional; design: concentration or dose not given beside the values
[19] = tested on: HCT-15; experiment: Growth inhibition of human HCT15 cells assessed as cell growth incubated for 48 hrs by sulforhodamine B assay; type: functional; design: scale not given: the % may be the effect or the level left
[20] = tested on: HT-29; experiment: Growth inhibition of human HT-29 cells assessed as cell growth incubated for 48 hrs by sulforhodamine B assay; type: functional; design: concentration or dose not given beside the values
[21] = tested on: KM12; experiment: Growth inhibition of human KM12 cells assessed as cell growth incubated for 48 hrs by sulforhodamine B assay; type: functional; design: concentration or dose not given beside the values
[22] = tested on: SW-620; experiment: Growth inhibition of human SW620 cells assessed as cell growth incubated for 48 hrs by sulforhodamine B assay; type: functional; design: concentration or dose not given beside the values
[23] = tested on: SF-268; experiment: Growth inhibition of human SF268 cells assessed as cell growth incubated for 48 hrs by sulforhodamine B assay; type: functional; design: concentration or dose not given beside the values
[24] = tested on: SF-295; experiment: Growth inhibition of human SF295 cells assessed as cell growth incubated for 48 hrs by sulforhodamine B assay; type: functional; design: concentration or dose not given beside the values
[25] = tested on: SF-539; experiment: Growth inhibition of human SF539 cells assessed as cell growth incubated for 48 hrs by sulforhodamine B assay; type: functional; design: scale not given: the % may be the effect or the level left
[26] = tested on: SNB-19; experiment: Growth inhibition of human SNB19 cells assessed as cell growth incubated for 48 hrs by sulforhodamine B assay; type: functional; design: concentration or dose not given beside the values
[27] = tested on: SNB-75; experiment: Growth inhibition of human SNB75 cells assessed as cell growth incubated for 48 hrs by sulforhodamine B assay; type: functional; design: concentration or dose not given beside the values
[28] = tested on: U-251; experiment: Growth inhibition of human U251 cells assessed as cell growth incubated for 48 hrs by sulforhodamine B assay; type: functional; design: concentration or dose not given beside the values
[29] = tested on: LOX IMVI; experiment: Growth inhibition of human LOXIMVI cells assessed as cell growth incubated for 48 hrs by sulforhodamine B assay; type: functional; design: concentration or dose not given beside the values
[30] = tested on: Malme-3M; experiment: Growth inhibition of human MALME-3M cells assessed as cell growth incubated for 48 hrs by sulforhodamine B assay; type: functional; design: scale not given: the % may be the effect or the level left
[31] = tested on: M14; experiment: Growth inhibition of human M14 cells assessed as cell growth incubated for 48 hrs by sulforhodamine B assay; type: functional; design: concentration or dose not given beside the values
[32] = tested on: MDA-MB-435; experiment: Growth inhibition of human MDA-MB-435 cells assessed as cell growth incubated for 48 hrs by sulforhodamine B assay; type: functional; design: concentration or dose not given beside the values
[33] = tested on: SK-MEL-2; experiment: Growth inhibition of human SK-MEL-2 cells assessed as cell growth incubated for 48 hrs by sulforhodamine B assay; type: functional; design: concentration or dose not given beside the values
[34] = tested on: SK-MEL-28; experiment: Growth inhibition of human SK-MEL-28 cells assessed as cell growth incubated for 48 hrs by sulforhodamine B assay; type: functional; design: concentration or dose not given beside the values
[35] = tested on: SK-MEL-5; experiment: Growth inhibition of human SK-MEL-5 cells assessed as cell growth incubated for 48 hrs by sulforhodamine B assay; type: functional; design: concentration or dose not given beside the values
[36] = tested on: UACC-257; experiment: Growth inhibition of human UACC257 cells assessed as cell growth incubated for 48 hrs by sulforhodamine B assay; type: functional; design: concentration or dose not given beside the values
[37] = tested on: UACC-62; experiment: Growth inhibition of human UACC62 cells assessed as cell growth incubated for 48 hrs by sulforhodamine B assay; type: functional; design: concentration or dose not given beside the values
[38] = tested on: OVCAR-3; experiment: Growth inhibition of human OVCAR3 cells assessed as cell growth incubated for 48 hrs by sulforhodamine B assay; type: functional; design: concentration or dose not given beside the values
[39] = tested on: OVCAR-4; experiment: Growth inhibition of human OVCAR4 cells assessed as cell growth incubated for 48 hrs by sulforhodamine B assay; type: functional; design: concentration or dose not given beside the values
[40] = tested on: OVCAR-5; experiment: Growth inhibition of human OVCAR5 cells assessed as cell growth incubated for 48 hrs by sulforhodamine B assay; type: functional; design: scale not given: the % may be the effect or the level left
[41] = tested on: OVCAR-8; experiment: Growth inhibition of human OVCAR8 cells assessed as cell growth incubated for 48 hrs by sulforhodamine B assay; type: functional; design: concentration or dose not given beside the values
[42] = tested on: NCI/ADR-RES; experiment: Growth inhibition of human NCI/ADR-RES cells assessed as cell growth incubated for 48 hrs by sulforhodamine B assay; type: functional; design: concentration or dose not given beside the values
[43] = tested on: SK-OV-3; experiment: Growth inhibition of human SKOV3 cells assessed as cell growth incubated for 48 hrs by sulforhodamine B assay; type: functional; design: concentration or dose not given beside the values
[44] = tested on: 786-0; experiment: Growth inhibition of human 786-0 cells assessed as cell growth incubated for 48 hrs by sulforhodamine B assay; type: functional; design: concentration or dose not given beside the values
[45] = tested on: A498; experiment: Growth inhibition of human A498 cells assessed as cell growth incubated for 48 hrs by sulforhodamine B assay; type: functional; design: concentration or dose not given beside the values
[46] = tested on: ACHN; experiment: Growth inhibition of human ACHN cells assessed as cell growth incubated for 48 hrs by sulforhodamine B assay; type: functional; design: scale not given: the % may be the effect or the level left
[47] = tested on: CAKI-1; experiment: Growth inhibition of human Caki1 cells assessed as cell growth incubated for 48 hrs by sulforhodamine B assay; type: functional; design: concentration or dose not given beside the values
[48] = tested on: RXF 393; experiment: Growth inhibition of human RXF393 cells assessed as cell growth incubated for 48 hrs by sulforhodamine B assay; type: functional; design: concentration or dose not given beside the values
[49] = tested on: SN12C; experiment: Growth inhibition of human SN12C cells assessed as cell growth incubated for 48 hrs by sulforhodamine B assay; type: functional; design: concentration or dose not given beside the values
[50] = tested on: TK-10; experiment: Growth inhibition of human TK10 cells assessed as cell growth incubated for 48 hrs by sulforhodamine B assay; type: functional; design: concentration or dose not given beside the values
[51] = tested on: UO-31; experiment: Growth inhibition of human UO31 cells assessed as cell growth incubated for 48 hrs by sulforhodamine B assay; type: functional; design: concentration or dose not given beside the values
[52] = tested on: PC-3; experiment: Growth inhibition of human PC3 cells assessed as cell growth incubated for 48 hrs by sulforhodamine B assay; type: functional; design: concentration or dose not given beside the values
[53] = tested on: DU-145; experiment: Growth inhibition of human DU145 cells assessed as cell growth incubated for 48 hrs by sulforhodamine B assay; type: functional; design: concentration or dose not given beside the values
[54] = tested on: MCF7; experiment: Growth inhibition of human MCF7 cells assessed as cell growth incubated for 48 hrs by sulforhodamine B assay; type: functional; design: concentration or dose not given beside the values
[55] = tested on: MDA-MB-231; experiment: Growth inhibition of human MDA-MB-231 cells assessed as cell growth incubated for 48 hrs by sulforhodamine B assay; type: functional; design: concentration or dose not given beside the values
[56] = tested on: Hs-578T; experiment: Growth inhibition of human Hs 578T cells assessed as cell growth incubated for 48 hrs by sulforhodamine B assay; type: functional; design: concentration or dose not given beside the values
[57] = tested on: BT-549; experiment: Growth inhibition of human BT549 cells assessed as cell growth incubated for 48 hrs by sulforhodamine B assay; type: functional; design: concentration or dose not given beside the values
[58] = tested on: T47D; experiment: Growth inhibition of human T47D cells assessed as cell growth incubated for 48 hrs by sulforhodamine B assay; type: functional; design: concentration or dose not given beside the values
[59] = tested on: MDA-MB-468; experiment: Growth inhibition of human MDA-MB-468 cells assessed as cell growth incubated for 48 hrs by sulforhodamine B assay; type: functional; design: concentration or dose not given beside the values

**Q.** O=C(O)CCc1ccc2c(=O)c3c(sc4c(=O)c5ccccc5c(=O)c43)c(=O)c2c1 was tested. Which Activity [1] did it give?
**A.** Active

**Q.** Which results are given for NCC1CN(C(=O)CCc2ccc3c(=O)c4sc5c(=O)c6ccccc6c(=O)c5c4c(=O)c3c2)C1.O=C(O)C(F)(F)F?
**A.** Activity [2]: -36.2%; Activity [3]: -39.84%; Activity [4]: -59.88%; Activity [5]: -29.57%; Activity [6]: -46.78%; Activity [7]: -25%; Activity [8]: -55.33%; Activity [9]: -90.94%; Activity [10]: -32.93%; Activity [11]: -49.62%; Activity [12]: -50.82%; Activity [13]: -97.48%; Activity [14]: -52.32%; Activity [15]: -72.26%; Activity [16]: -91.79%; Activity [17]: -90.76%; Activity [18]: -80.84%; Activity [19]: -61.54%; Activity [20]: -46.19%; Activity [21]: -76.76%; Activity [22]: -60.32%; Activity [23]: -57.54%; Activity [24]: -92.59%; Activity [25]: -99.46%; Activity [26]: -98.59%; Activity [27]: -95.74%; Activity [28]: -92.83%; Activity [29]: -82.6%; Activity [30]: -93.22%; Activity [31]: -93.82%; Activity [32]: -93.07%; Activity [33]: -72.32%; Activity [34]: -96.8%; Activity [35]: -98.07%; Activity [36]: -92.08%; Activity [37]: -88.01%; Activity [38]: -68.52%; Activity [39]: -71.07%; Activity [40]: -85.63%; Activity [41]: -38.88%; Activity [42]: -15.35%; Activity [43]: -97.49%; Activity [44]: -95.07%; Activity [45]: -87.3%; Activity [46]: -96.22%; Activity [47]: -78.75%; Activity [48]: -77.25%; Activity [49]: -69%; Activity [50]: -89.49%; Activity [51]: -96.98%; Activity [52]: -79.46%; Activity [53]: -94.41%; Activity [54]: -58.78%; Activity [55]: -15.99%; Activity [56]: 1.09%; Activity [57]: -96.67%; Activity [58]: -51.1%; Activity [59]: -83.65%

Source: ChEMBL document CHEMBL4420075, “Seriniquinones, melanoma-specific anticancer agents” (2016)
